Reference: ChEMBL document CHEMBL1155305, “Discovery of a new series of monoamine reuptake inhibitors, the 1-amino-3-(1H-indol-1-yl)-3-phenylpropan-2-ols” (Bioorg Med Chem Lett, 2009)
Active and inactive are the calls of the source. The calls are words filed in the database; no cut-off is given here.

How the values were obtained:
[1] = Half life in dog liver microsomes at 1 uM; assay type: ADME, Canis lupus familiaris, Microsome
[2] = Half life in monkey liver microsomes at 1 uM; assay type: ADME, Macaca mulatta, Microsome; conditions: rhesus monkey
[3] = biological target: CYP3A4 (Homo sapiens, UniProt P08684); assay: Inhibition of CYP3A4 at 3 uM; assay type: ADME
Chain of CYP3A4 (P08684 whole entry): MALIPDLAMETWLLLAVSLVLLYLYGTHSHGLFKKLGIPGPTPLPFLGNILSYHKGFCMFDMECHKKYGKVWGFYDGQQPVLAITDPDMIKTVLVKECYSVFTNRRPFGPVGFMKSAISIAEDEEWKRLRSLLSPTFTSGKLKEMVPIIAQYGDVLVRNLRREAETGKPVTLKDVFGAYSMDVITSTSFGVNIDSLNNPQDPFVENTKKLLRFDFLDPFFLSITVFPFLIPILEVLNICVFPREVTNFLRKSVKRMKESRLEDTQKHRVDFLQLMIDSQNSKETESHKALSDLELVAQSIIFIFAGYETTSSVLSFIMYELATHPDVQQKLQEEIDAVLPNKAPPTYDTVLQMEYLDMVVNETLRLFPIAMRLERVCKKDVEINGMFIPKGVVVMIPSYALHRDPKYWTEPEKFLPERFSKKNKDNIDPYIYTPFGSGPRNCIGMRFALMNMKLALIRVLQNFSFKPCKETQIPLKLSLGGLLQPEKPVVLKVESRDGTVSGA

[4] = Half life in human liver microsomes at 1 uM; assay type: ADME, Microsome
[5] = Aqueous solubility at pH 7.4; assay type: physicochemical
[6] = biological target: CYP2D6 (Homo sapiens, UniProt P10635); assay: Inhibition of CYP2D6 at 3 uM; assay type: ADME
Chain of CYP2D6 (P10635 whole entry): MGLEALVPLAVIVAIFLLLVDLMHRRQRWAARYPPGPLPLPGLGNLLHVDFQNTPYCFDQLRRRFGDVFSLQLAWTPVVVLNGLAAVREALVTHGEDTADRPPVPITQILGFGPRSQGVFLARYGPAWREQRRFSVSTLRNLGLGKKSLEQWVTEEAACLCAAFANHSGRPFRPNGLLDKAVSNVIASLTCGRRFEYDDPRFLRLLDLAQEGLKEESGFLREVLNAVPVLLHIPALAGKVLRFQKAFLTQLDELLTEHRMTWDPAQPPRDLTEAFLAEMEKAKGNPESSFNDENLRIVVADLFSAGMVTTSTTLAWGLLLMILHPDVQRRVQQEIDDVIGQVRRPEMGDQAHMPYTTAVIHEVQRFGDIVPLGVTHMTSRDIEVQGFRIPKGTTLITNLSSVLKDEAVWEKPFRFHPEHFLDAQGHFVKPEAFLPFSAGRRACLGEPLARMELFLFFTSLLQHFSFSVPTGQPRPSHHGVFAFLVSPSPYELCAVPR

[7] = Half life in rat liver microsomes at 1 uM; assay type: ADME, Microsome
[8] = biological target: CYP2C9 (Homo sapiens, UniProt P11712); assay: Inhibition of CYP2C9 at 3 uM; assay type: ADME
Chain of CYP2C9 (P11712 whole entry): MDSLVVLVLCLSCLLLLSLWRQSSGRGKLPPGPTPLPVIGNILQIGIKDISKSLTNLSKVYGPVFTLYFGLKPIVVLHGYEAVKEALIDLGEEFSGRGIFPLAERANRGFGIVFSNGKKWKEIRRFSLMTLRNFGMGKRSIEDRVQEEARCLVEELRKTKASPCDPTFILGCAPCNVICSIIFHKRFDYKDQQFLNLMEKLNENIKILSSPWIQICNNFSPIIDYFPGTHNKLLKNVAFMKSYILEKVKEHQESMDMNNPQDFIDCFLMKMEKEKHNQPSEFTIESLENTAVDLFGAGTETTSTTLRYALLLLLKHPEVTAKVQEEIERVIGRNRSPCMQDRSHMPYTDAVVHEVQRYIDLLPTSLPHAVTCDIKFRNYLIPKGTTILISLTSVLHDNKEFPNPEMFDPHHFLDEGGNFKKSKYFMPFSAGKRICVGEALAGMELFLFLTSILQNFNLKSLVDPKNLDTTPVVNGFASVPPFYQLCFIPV

[9] = biological target: Sodium-dependent serotonin transporter (Homo sapiens, UniProt P31645); assay type: cell-based, JAR
Chain of Sodium-dependent serotonin transporter (P31645 whole entry): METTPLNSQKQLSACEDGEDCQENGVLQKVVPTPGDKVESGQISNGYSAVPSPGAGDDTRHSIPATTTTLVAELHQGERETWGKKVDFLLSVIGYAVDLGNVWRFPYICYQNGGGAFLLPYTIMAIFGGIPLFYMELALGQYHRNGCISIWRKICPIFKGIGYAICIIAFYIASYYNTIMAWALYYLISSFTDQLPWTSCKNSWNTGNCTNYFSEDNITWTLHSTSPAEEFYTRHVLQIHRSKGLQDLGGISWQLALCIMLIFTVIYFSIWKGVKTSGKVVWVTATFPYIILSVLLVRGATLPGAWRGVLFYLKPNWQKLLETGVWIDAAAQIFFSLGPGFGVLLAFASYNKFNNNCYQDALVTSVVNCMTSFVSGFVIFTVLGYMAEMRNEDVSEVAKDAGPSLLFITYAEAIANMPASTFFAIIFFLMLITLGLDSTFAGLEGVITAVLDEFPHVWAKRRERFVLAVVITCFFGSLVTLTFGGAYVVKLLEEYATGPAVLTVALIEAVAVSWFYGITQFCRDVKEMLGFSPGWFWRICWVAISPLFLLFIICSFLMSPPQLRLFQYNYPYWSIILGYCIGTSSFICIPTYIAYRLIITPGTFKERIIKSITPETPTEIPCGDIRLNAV
Description: Inhibition of serotonin uptake at human SERT expressed in JAR cells

[10] = Membrane permeability by PAMPA assay; assay type: ADME; conditions: read-out: permeability
[11] = biological target: Sodium-dependent dopamine transporter (Homo sapiens) (UniProt Q01959); assay: Displacement of [3H]WIN-35428 from human recombinant DAT expressed in CHO cells at 1 uM; assay type: cell-based
Chain of Sodium-dependent dopamine transporter (Homo sapiens) (Q01959 whole entry): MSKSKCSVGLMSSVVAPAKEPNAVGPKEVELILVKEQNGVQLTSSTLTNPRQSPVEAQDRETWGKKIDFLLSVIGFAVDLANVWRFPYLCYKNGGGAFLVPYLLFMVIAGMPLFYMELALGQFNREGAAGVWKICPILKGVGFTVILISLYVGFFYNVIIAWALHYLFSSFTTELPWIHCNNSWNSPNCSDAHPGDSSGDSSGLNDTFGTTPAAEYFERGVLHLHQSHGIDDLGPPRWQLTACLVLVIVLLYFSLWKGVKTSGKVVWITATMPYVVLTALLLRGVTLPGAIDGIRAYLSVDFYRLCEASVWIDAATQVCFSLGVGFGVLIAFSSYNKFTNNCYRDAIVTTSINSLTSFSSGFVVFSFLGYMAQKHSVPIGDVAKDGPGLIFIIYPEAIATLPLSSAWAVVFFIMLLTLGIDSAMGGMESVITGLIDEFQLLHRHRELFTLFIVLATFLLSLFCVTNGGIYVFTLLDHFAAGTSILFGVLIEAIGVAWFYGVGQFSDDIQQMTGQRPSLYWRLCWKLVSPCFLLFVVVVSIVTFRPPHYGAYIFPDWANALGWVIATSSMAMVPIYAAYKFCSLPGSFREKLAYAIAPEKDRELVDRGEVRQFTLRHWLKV

[12] = Binding affinity to alpha2 adrenergic receptor
[13] = biological target: 5-hydroxytryptamine receptor 2A (Homo sapiens) (UniProt P28223); assay: Binding affinity to 5-HT2A receptor
Chain of 5-hydroxytryptamine receptor 2A (Homo sapiens) (P28223 whole entry): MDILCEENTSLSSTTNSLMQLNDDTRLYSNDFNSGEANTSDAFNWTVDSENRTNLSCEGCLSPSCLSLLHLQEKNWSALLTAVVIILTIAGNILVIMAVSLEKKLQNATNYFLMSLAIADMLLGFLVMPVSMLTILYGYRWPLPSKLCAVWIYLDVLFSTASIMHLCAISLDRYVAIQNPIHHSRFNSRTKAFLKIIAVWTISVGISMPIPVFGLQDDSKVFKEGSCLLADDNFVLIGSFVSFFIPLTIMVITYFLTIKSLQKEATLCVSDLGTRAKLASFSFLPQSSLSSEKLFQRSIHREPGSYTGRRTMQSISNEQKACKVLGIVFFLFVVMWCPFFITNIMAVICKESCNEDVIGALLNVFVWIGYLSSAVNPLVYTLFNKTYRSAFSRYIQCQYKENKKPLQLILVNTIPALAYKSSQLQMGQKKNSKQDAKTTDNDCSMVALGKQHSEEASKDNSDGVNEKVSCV

[14] = biological target: T1, 5-hydroxytryptamine receptor 1A (Homo sapiens) (UniProt P08908); assay: Binding affinity to 5-HT1A receptor
T1 sequence (whole entry): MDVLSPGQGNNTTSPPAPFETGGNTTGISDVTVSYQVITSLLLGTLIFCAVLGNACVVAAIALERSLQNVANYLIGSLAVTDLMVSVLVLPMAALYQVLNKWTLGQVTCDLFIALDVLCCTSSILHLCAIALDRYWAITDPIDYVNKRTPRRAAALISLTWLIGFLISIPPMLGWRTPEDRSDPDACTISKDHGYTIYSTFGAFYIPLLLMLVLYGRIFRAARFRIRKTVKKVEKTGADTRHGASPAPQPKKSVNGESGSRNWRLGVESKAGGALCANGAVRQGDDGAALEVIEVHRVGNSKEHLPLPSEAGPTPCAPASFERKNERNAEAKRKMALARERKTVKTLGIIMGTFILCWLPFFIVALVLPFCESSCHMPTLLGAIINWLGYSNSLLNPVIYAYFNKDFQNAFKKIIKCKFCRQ

[15] = Binding affinity to alpha1 adrenergic receptor
[16] = biological target: T2, Sodium-dependent noradrenaline transporter (Homo sapiens, UniProt P23975)
T2 sequence (P23975 whole entry): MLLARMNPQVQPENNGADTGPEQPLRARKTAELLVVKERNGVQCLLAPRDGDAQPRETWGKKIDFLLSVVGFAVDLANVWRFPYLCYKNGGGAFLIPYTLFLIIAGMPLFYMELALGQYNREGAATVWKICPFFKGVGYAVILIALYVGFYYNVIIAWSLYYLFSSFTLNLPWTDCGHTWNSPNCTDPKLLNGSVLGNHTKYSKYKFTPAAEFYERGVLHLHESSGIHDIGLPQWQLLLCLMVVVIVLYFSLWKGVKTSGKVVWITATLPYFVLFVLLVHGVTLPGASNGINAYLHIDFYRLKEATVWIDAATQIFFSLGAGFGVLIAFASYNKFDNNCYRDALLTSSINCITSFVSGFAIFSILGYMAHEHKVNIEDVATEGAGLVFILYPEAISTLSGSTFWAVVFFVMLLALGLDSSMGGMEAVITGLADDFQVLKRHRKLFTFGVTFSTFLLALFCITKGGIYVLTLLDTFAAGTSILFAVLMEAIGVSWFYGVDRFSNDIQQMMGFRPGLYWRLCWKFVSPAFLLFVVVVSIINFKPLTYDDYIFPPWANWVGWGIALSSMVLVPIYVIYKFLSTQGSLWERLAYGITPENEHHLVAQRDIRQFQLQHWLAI

[17] = tested on: MDCK-Net6; assay: Selectivity index, ratio of IC50 for human SERT to IC50 for human NET uptake in MDCK-Net6 cell; assay type: cell-based
[18] = biological target: T2, Sodium-dependent noradrenaline transporter; assay: Inhibition of norepinephrine reuptake at human NET expressed in MDCK-Net6 cells at 1000 nM; assay type: cell-based

Structure (SMILES)	IC50 [9]	inhibition [11]	inhibition [18]	other results
CNC[C@@H](O)[C@H](c1ccccc1)n1ccc2ccccc21 [listing 1 of 2 here]	358 nM			half-life at 1 µM [1]: 15.9 min; half-life at 1 µM [2]: 9.7 min; inhibition at 3 µM [3]: < 20%; half-life at 1 µM [4]: > 60 min; solubility [5]: > 50 µg/mL; inhibition at 3 µM [6]: < 20%; half-life at 1 µM [7]: 9.8 min; inhibition at 3 µM [8]: < 20%; Papp [10]: 4.6 ×10⁻⁶ cm/s
CNC[C@@H](O)[C@@H](c1ccccc1)n1ccc2ccccc21	161 nM	31%		
CNC[C@H](O)[C@@H](c1ccccc1)n1ccc2ccccc21 [listing 1 of 2 here]	144 nM			
CNC[C@H](O)[C@H](c1ccccc1)n1ccc2ccccc21	918 nM	0%		
CNC[C@@H](O)[C@H](c1ccccc1)n1ccc2ccccc21 [listing 2 of 2 here]		19%		Activity [12]: inactive; Activity [13]: inactive; Activity [14]: inactive; Activity [15]: inactive
CNC[C@H](O)[C@@H](c1ccccc1)n1ccc2ccccc21 [listing 2 of 2 here]		18%		
OC1(c2ccc(Cl)cc2)c2ccccc2C2=NCCN21 (stereo not given)		22.1%		
CCNC[C@H](O)[C@H](c1ccccc1)n1ccc2ccccc21 (racemic)	298 nM			IC50 [16]: 1200 nM; Ratio IC50 [17]: 0.2
CNC[C@H](O)[C@H](c1ccccc1)n1ccc2cc(Cl)ccc21 (racemic)	10 nM			IC50 [16]: 49 nM; Ratio IC50 [17]: 0.2
CNC[C@H](O)[C@H](c1ccccc1)n1ccc2cc(F)ccc21 (racemic)	95 nM			IC50 [16]: 118 nM; Ratio IC50 [17]: 1
O[C@@H](CNCC1CCCCC1)[C@H](c1ccccc1)n1ccc2ccccc21 (racemic)	2830 nM		41%	
CNC[C@H](O)[C@H](c1ccccc1)n1ccc2cc(OC)ccc21 (racemic)	31 nM	2%		IC50 [16]: 230 nM; Ratio IC50 [17]: 0.1
CCNC[C@H](O)[C@H](c1ccccc1)n1cc(C)c2ccccc21 (racemic)	2200 nM	0%		IC50 [16]: 1100 nM; Ratio IC50 [17]: 2
Cc1cn([C@@H](c2ccccc2)[C@@H](O)CN)c2ccccc12 (racemic)	299 nM	6%		IC50 [16]: 321 nM; Ratio IC50 [17]: 1
NC[C@H](O)[C@H](c1ccccc1)n1ccc2ccccc21 (racemic)	50 nM	7%		Ratio IC50 [17]: 0.1
CNC[C@H](O)[C@H](c1ccccc1)n1cc(C)c2ccccc21 (racemic)	251 nM	0%		

Structure (SMILES)	IC50 [9]	inhibition [11]	inhibition [18]	other results
CC(C)NC[C@H](O)[C@H](c1ccccc1)n1ccc2ccccc21 (racemic)			13%	
CCN(C)C[C@H](O)[C@H](c1ccccc1)n1ccc2ccccc21 (racemic)			38%	
CCNC[C@H](O)[C@H](c1ccccc1)n1ccc2cc(F)ccc21 (racemic)			11%	
CN(C)C[C@H](O)[C@H](c1ccccc1)n1ccc2ccccc21 (racemic)			25%	
CN1CCN(C[C@H](O)[C@H](c2ccccc2)n2ccc3ccccc32)CC1 (racemic)			5%	
CNC[C@H](O)[C@H](c1ccccc1)n1c(C)cc2ccccc21 (racemic)			45%	
NC[C@H](O)[C@H](c1ccccc1)n1ccc2cc(F)ccc21 (racemic)			32%	
O[C@@H](CN1CCNCC1)[C@H](c1ccccc1)n1ccc2ccccc21 (racemic)			34%	
O[C@@H](CN1CCOCC1)[C@H](c1ccccc1)n1ccc2ccccc21 (racemic)			18%	
O[C@@H](CNCc1ccccc1)[C@H](c1ccccc1)n1ccc2ccccc21 (racemic)			26%	
O[C@@H](CNCc1ccncc1)[C@H](c1ccccc1)n1ccc2ccccc21 (racemic)			24%	
CNC[C@@H](O)[C@H](c1ccccc1)n1ccc2ccccc21 (stereo in doubt) [listing 1 of 2 here]	126 nM			
CNC[C@H](O)[C@@H](c1ccccc1)n1ccc2ccccc21 (stereo in doubt) [listing 1 of 2 here]	74 nM			
CNC[C@@H](O)[C@H](c1ccccc1)n1ccc2ccccc21 (stereo in doubt) [listing 2 of 2 here]		7%		
CNC[C@H](O)[C@@H](c1ccccc1)n1ccc2ccccc21 (stereo in doubt) [listing 2 of 2 here]		4%		
